Measured values: ChEMBL document CHEMBL1201862, “PubChem BioAssay data set” (2004)
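Compound exposure: 48 hours, 5 concentrations, 96-well plates. The concentration for 50% growth inhibition is given as GI50.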 Calls of active or inactive are those of the source. Rule as the data show it: active = GI50 up to about 1.1 µM and inactive = higher.

Experiments:
Experiment in all cases: NCI tumour cell line growth inhibition, 48 h
[1] = tested on: MOLT-4
[2] = tested on: SW-620
[3] = tested on: DLD-1
[4] = tested on: HOP-62
[5] = tested on: NCI-H226
[6] = tested on: COLO 205
[7] = tested on: HT-29
[8] = tested on: NCI-H522
[9] = tested on: SF-539
[10] = tested on: UACC-62
[11] = tested on: ACHN
[12] = tested on: U-251
[13] = tested on: NCI-H460
[14] = tested on: OVCAR-8
[15] = tested on: IGROV-1
[16] = tested on: SK-OV-3
[17] = tested on: HCC 2998
[18] = tested on: SF-295
[19] = tested on: LXFL 529
[20] = tested on: HCT-116
[21] = tested on: HL-60
[22] = tested on: K562
[23] = tested on: SNB-19
[24] = tested on: A549
[25] = tested on: NCI-H23
[26] = tested on: UACC-257
[27] = tested on: M19-MEL
[28] = tested on: CCRF-CEM
[29] = tested on: SK-MEL-28
[30] = tested on: RPMI-8226
[31] = tested on: UO-31
[32] = tested on: SR
[33] = tested on: OVCAR-3
[34] = tested on: SK-MEL-5
[35] = tested on: TK-10
[36] = tested on: SF-268
[37] = tested on: KM12
[38] = tested on: HOP-92
[39] = tested on: EKVX
[40] = tested on: BT-549
[41] = tested on: PC-3
[42] = tested on: SNB-75
[43] = tested on: CAKI-1
[44] = tested on: DU-145
[45] = tested on: Hs-578T
[46] = tested on: LOX IMVI
[47] = tested on: Malme-3M
[48] = tested on: NCI/ADR-RES
[49] = tested on: MDA-MB-435
[50] = tested on: MCF7
[51] = tested on: RXF 393
[52] = tested on: SN12C
[53] = tested on: OVCAR-4
[54] = tested on: MDA-MB-231
[55] = tested on: OVCAR-5
[56] = tested on: HCT-15
[57] = tested on: SK-MEL-2
[58] = tested on: MDA-N
[59] = tested on: T47D
[60] = tested on: A498
[61] = tested on: M14
[62] = tested on: 786-0

CCOC(=O)/C(C#N)=C1/Sc2c(ncn(/N=C/c3ccc(OC)cc3)c2=O)N1c1ccccc1
GI50 [1]: > 100 µM (inactive) | GI50 [2]: > 100 µM (inactive) | GI50 [3]: > 100 µM (inactive) | GI50 [4]: 22.2 µM (inactive) | GI50 [5]: 36.1 µM (inactive) | GI50 [6]: > 100 µM (inactive) | GI50 [7]: 70.6 µM (inactive) | GI50 [8]: 25.4 µM (inactive) | GI50 [9]: 14.8 µM (inactive) | GI50 [10]: 31.1 µM (inactive) | GI50 [11]: > 100 µM (inactive) | GI50 [12]: 37.4 µM (inactive) | GI50 [13]: 28.9 µM (inactive) | GI50 [14]: 40.6 µM (inactive) | GI50 [15]: 56.2 µM (inactive) | GI50 [16]: 40.4 µM (inactive) | GI50 [17]: > 100 µM (inactive) | GI50 [18]: 19.1 µM (inactive) | GI50 [19]: 41.1 µM (inactive) | GI50 [20]: > 100 µM (inactive) | GI50 [21]: > 100 µM (inactive) | GI50 [22]: 62.5 µM (inactive) | GI50 [23]: 33.5 µM (inactive) | GI50 [24]: 67.8 µM (inactive) | GI50 [25]: 54.8 µM (inactive) | GI50 [26]: 29.2 µM (inactive) | GI50 [27]: 74 µM (inactive) | GI50 [28]: > 100 µM (inactive) | GI50 [29]: 28.7 µM (inactive) | GI50 [30]: > 100 µM (inactive) | GI50 [31]: > 100 µM (inactive) | GI50 [32]: > 100 µM (inactive) | GI50 [33]: 41.4 µM (inactive) | GI50 [34]: > 100 µM (inactive) | GI50 [35]: 50.2 µM (inactive) | GI50 [36]: 14.8 µM (inactive) | GI50 [37]: > 100 µM (inactive) | GI50 [38]: 13.9 µM (inactive)

COc1cc(C2c3cc4c(cc3OC(NC3CCCCC3)C2C)OCO4)cc(OC)c1OC (stereo unspecified)
GI50 [39]: 4.47 µM (inactive) | GI50 [40]: 0.649 µM (active) | GI50 [1]: 0.48 µM (active) | GI50 [2]: 0.34 µM (active) | GI50 [41]: 0.382 µM (active) | GI50 [4]: 2.38 µM (inactive) | GI50 [5]: 1.52 µM (inactive) | GI50 [6]: 0.241 µM (active) | GI50 [7]: 0.383 µM (active) | GI50 [42]: 0.223 µM (active) | GI50 [8]: 0.359 µM (active) | GI50 [9]: 0.339 µM (active) | GI50 [10]: 0.379 µM (active) | GI50 [11]: 0.746 µM (active) | GI50 [12]: 0.467 µM (active) | GI50 [43]: 0.409 µM (active) | GI50 [44]: 0.478 µM (active) | GI50 [13]: 0.488 µM (active) | GI50 [45]: 0.377 µM (active) | GI50 [14]: 0.845 µM (active) | GI50 [46]: 0.617 µM (active) | GI50 [15]: 0.665 µM (active) | GI50 [16]: 0.394 µM (active) | GI50 [17]: 1.5 µM (inactive) | GI50 [18]: 0.203 µM (active) | GI50 [20]: 0.47 µM (active) | GI50 [47]: 0.321 µM (active) | GI50 [21]: 0.271 µM (active) | GI50 [48]: 0.296 µM (active) | GI50 [22]: 0.393 µM (active) | GI50 [49]: 0.19 µM (active) | GI50 [23]: 0.45 µM (active) | GI50 [24]: 0.885 µM (active) | GI50 [25]: 0.499 µM (active) | GI50 [50]: 0.485 µM (active) | GI50 [26]: 46.8 µM (inactive) | GI50 [51]: 0.258 µM (active) | GI50 [52]: 0.687 µM (active) | GI50 [53]: 0.615 µM (active) | GI50 [54]: 0.393 µM (active) | GI50 [55]: 3.03 µM (inactive) | GI50 [28]: 0.422 µM (active) | GI50 [29]: 21.8 µM (inactive) | GI50 [56]: 0.543 µM | GI50 [57]: 0.578 µM (active) | GI50 [58]: 0.188 µM (active) | GI50 [30]: 0.403 µM (active) | GI50 [31]: 0.515 µM (active) | GI50 [32]: 0.378 µM (active) | GI50 [33]: 0.267 µM (active) | GI50 [59]: 0.339 µM (active) | GI50 [34]: 0.362 µM (active) | GI50 [35]: 16.9 µM (inactive) | GI50 [36]: 0.701 µM (active) | GI50 [60]: 0.681 µM (active) | GI50 [61]: 0.508 µM (active) | GI50 [62]: 0.493 µM (active) | GI50 [37]: 0.407 µM (active) | GI50 [38]: 2.65 µM (inactive)

O=C1c2ccccc2C(=O)c2c(NC3CCCCC3)ccc(Nc3ccc(S(=O)(=O)O)cc3)c21
GI50 [39]: 17 µM (inactive) | GI50 [40]: 43.8 µM (inactive) | GI50 [1]: 34.9 µM (inactive) | GI50 [2]: 35.2 µM (inactive) | GI50 [41]: 22.6 µM (inactive) | GI50 [4]: > 100 µM (inactive) | GI50 [5]: > 100 µM (inactive) | GI50 [6]: 20.1 µM (inactive) | GI50 [7]: 39.4 µM (inactive) | GI50 [42]: > 100 µM (inactive) | GI50 [8]: 20.6 µM (inactive) | GI50 [9]: 32.2 µM (inactive) | GI50 [10]: > 100 µM (inactive) | GI50 [11]: 38.8 µM (inactive) | GI50 [12]: 29.6 µM (inactive) | GI50 [43]: > 100 µM (inactive) | GI50 [44]: > 100 µM (inactive) | GI50 [13]: 62.5 µM (inactive) | GI50 [45]: > 100 µM (inactive) | GI50 [14]: 35.3 µM (inactive) | GI50 [46]: 32.7 µM (inactive) | GI50 [15]: 32.7 µM (inactive) | GI50 [16]: > 100 µM (inactive) | GI50 [17]: 26.5 µM (inactive) | GI50 [18]: > 100 µM (inactive) | GI50 [20]: 29.7 µM (inactive) | GI50 [47]: 23.4 µM (inactive) | GI50 [21]: 31.6 µM (inactive) | GI50 [48]: > 100 µM (inactive) | GI50 [22]: 52 µM (inactive) | GI50 [49]: 39.1 µM (inactive) | GI50 [23]: 84.5 µM (inactive) | GI50 [24]: 33.9 µM (inactive) | GI50 [25]: 77.1 µM (inactive) | GI50 [50]: 21.3 µM (inactive) | GI50 [26]: 23.9 µM (inactive) | GI50 [51]: 83.6 µM (inactive) | GI50 [52]: 20.6 µM (inactive) | GI50 [53]: 33.9 µM (inactive) | GI50 [54]: 22.5 µM (inactive) | GI50 [55]: > 100 µM (inactive) | GI50 [28]: 26.3 µM (inactive) | GI50 [29]: > 100 µM (inactive) | GI50 [56]: 32.6 µM | GI50 [57]: 21.8 µM (inactive) | GI50 [58]: 46 µM (inactive) | GI50 [30]: 45.2 µM (inactive) | GI50 [31]: 59 µM (inactive) | GI50 [32]: 36.1 µM (inactive) | GI50 [33]: 28.2 µM (inactive) | GI50 [59]: 29 µM (inactive) | GI50 [34]: 63 µM (inactive) | GI50 [35]: > 100 µM (inactive) | GI50 [36]: 34.8 µM (inactive) | GI50 [60]: > 100 µM (inactive) | GI50 [61]: 35.1 µM (inactive) | GI50 [62]: 45.7 µM (inactive) | GI50 [37]: 30.9 µM (inactive) | GI50 [38]: > 100 µM (inactive)
